Laboratory results from ChEMBL document CHEMBL5346877, “A-ring-fused pyrazoles of dihydrotestosterone targeting prostate cancer cells via the downregulation of the androgen receptor” (Eur J Med Chem, 2023).
Active and inactive are the calls of the source. No cut-off for these calls is given here.

Experiments:
[1] = test system: LAPC4; assay: Downregulation of PSA protein expression in human LAPC4 cells at 10 uM incubated for 24 hrs by immunoblotting analysis; format: functional, cell-based
[2] = test system: LAPC4; assay: Cytotoxicity against human LAPC4 cells assessed as cell viability at 20 uM incubated for 72 hrs by resazurin dye based microplate reader assay; format: functional; conditions: read-out: Activity
[3] = Downregulation of AR protein expression in human LAPC4 cells assessed as AR levels at 10 uM incubated for 24 hrs by immunoblotting analysis; format: functional
[4] = test system: LAPC4; assay: Inhibition of colony formation in human LAPC4 cells at 10 uM incubated for 10 days by crystal violet staining based assay; format: functional; conditions: LAPC4, 240 h, time 10 day
[5] = test system: LAPC4; assay: Downregulation of Nkx3.1 protein expression in human LAPC4 cells at 10 uM incubated for 24 hrs by immunoblotting analysis; format: functional, cell-based
[6] = test system: DU-145; assay: Cytotoxicity against human DU-145 cells assessed as cell viability at 20 uM incubated for 72 hrs by resazurin dye based microplate reader assay; format: functional; conditions: read-out: Activity
[7] = test system: CWR22R; assay: Cytotoxicity against human 22Rv1 cells assessed as cell viability at 20 uM incubated for 72 hrs by resazurin dye based microplate reader assay; format: functional; conditions: read-out: Activity
[8] = test system: LAPC4; assay: Inhibition of colony formation in human LAPC4 cells at 5 uM incubated for 10 days by crystal violet staining based assay; format: functional, cell-based; conditions: time 10.0 day

Compound	Activity [1]	viability at 20 µM [2] [%]	Activity [3]	inhibition at 10 µM [4] [%]	Activity [5]	viability at 20 µM [6] [%]	viability at 20 µM [7] [%]	inhibition [8]
C[C@]12Cc3cnn(-c4ccc(Cl)cc4)c3C[C@@H]1CC[C@@H]1[C@@H]2CC[C@]2(C)[C@@H](O)CC[C@@H]12	Active	49	>=100%	0	Active	91	80	–
C[C@]12Cc3c(nn(-c4ccccc4)c3-c3ccccc3)C[C@@H]1CC[C@@H]1[C@@H]2CC[C@]2(C)C(=O)CC[C@@H]12	inactive	61	>=100%	19	inactive	19	19	–
Cc1ccc(-n2cc3c(n2)C[C@@H]2CC[C@@H]4[C@H](CC[C@]5(C)[C@@H](O)CC[C@@H]45)[C@@]2(C)C3)cc1	inactive	≥ 100	>=100%	42	inactive	100	≥ 100	–
C[C@]12Cc3c(nn(-c4ccccc4)c3-c3ccc(Cl)cc3)C[C@@H]1CC[C@@H]1[C@@H]2CC[C@]2(C)C(=O)CC[C@@H]12	inactive	83	>=100%	91	inactive	98	93	–
C[C@]12Cc3cn(-c4ccc([N+](=O)[O-])cc4)nc3C[C@@H]1CC[C@@H]1[C@@H]2CC[C@]2(C)[C@@H](O)CC[C@@H]12	inactive	96	>=100%	93	inactive	99	≥ 100	–
C[C@]12Cc3cn(-c4ccc(C#N)cc4)nc3C[C@@H]1CC[C@@H]1[C@@H]2CC[C@]2(C)[C@@H](O)CC[C@@H]12	inactive	93	>=100%	76	inactive	97	94	–
C[C@]12Cc3cn(-c4ccc(Cl)cc4)nc3C[C@@H]1CC[C@@H]1[C@@H]2CC[C@]2(C)[C@@H](O)CC[C@@H]12	inactive	82	>=100%	98	inactive	≥ 100	≥ 100	–
Cn1nc2c(c1-c1ccc(F)cc1)C[C@@]1(C)[C@@H](CC[C@@H]3[C@@H]1CC[C@]1(C)C(=O)CC[C@@H]31)C2	–	29	100%	17	–	90	57	Active
Cn1nc2c(c1-c1ccc(Cl)cc1)C[C@@]1(C)[C@@H](CC[C@@H]3[C@@H]1CC[C@]1(C)[C@@H](O)CC[C@@H]31)C2	–	41	91%	26	–	90	29	Active
Cn1nc2c(c1-c1cccs1)C[C@@]1(C)[C@@H](CC[C@@H]3[C@@H]1CC[C@]1(C)C(=O)CC[C@@H]31)C2	–	31	92%	4	–	100	68	Active
COc1ccc(-c2c3c(nn2C)C[C@@H]2CC[C@@H]4[C@H](CC[C@]5(C)[C@@H](O)CC[C@@H]45)[C@@]2(C)C3)cc1	–	51	85%	5	–	≥ 100	33	Active
